Test results taken from PubChem BioAssay (NCI).
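Results reflect a 48-hour exposure of cells in 96-well plates to compound at five concentrations. GI50 marks 50% less growth. TGI denotes the concentration required for complete inhibition of growth.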

Legend:
Assay in all cases: growth of human tumour cells (NCI), 48 h
[1] = test system: SNB-19 CNS
[2] = test system: SN12C renal
[3] = test system: UACC-257 melanoma
[4] = test system: NCI-H522 lung
[5] = test system: SK-MEL-28 melanoma
[6] = test system: UACC-62 melanoma
[7] = test system: SNB-75 CNS
[8] = test system: KM12 colon
[9] = test system: CAKI-1 renal
[10] = test system: SF-295 CNS

Row | SMILES | TGI [1] [µM] | TGI [2] [µM] | TGI [3] [µM] | TGI [4] [µM] | TGI [5] [µM] | TGI [6] [µM] | TGI [7] [µM] | TGI [8] [µM] | TGI [9] [µM] | TGI [10] [µM] | GI50 [1] [µM] | GI50 [2] [µM] | GI50 [3] [µM] | GI50 [4] [µM] | GI50 [5] [µM] | GI50 [6] [µM] | GI50 [7] [µM] | GI50 [8] [µM] | GI50 [9] [µM] | GI50 [10] [µM]
1 | O=C(/C=C/c1ccccc1)c1ccc(NCc2nc3ccccc3[nH]2)cc1 | 15.9 | 15.4 | 13.2 | 14.7 | 32.6 | 21.4 | 20.9 | 4.54 | 25.2 | 13.1 |  |  |  |  |  |  |  |  |  | 
2 | CNC(=O)c1nn(C)c2c1C(C)(C)Cc1cnc(Nc3ccc(N4CCN(C)CC4)cc3)nc1-2 | > 10 | > 10 | > 9.15 | > 5.54 | > 10 | > 10 | 2.29 | > 10 | 1.22 | > 10 | 0.322 | 0.705 | 0.863 | 0.327 | 2.32 | 0.486 | 0.304 | 0.347 | 0.114 | 1.09
3 | Cc1cc(I)cc(CN(C)CCCN2CCCC2)c1O | > 80.4 | > 100 | > 57 | 45.9 | 29.9 | 13.1 | 35.6 | 46 | 32.2 | 28.4 | 27.6 | 46.1 | 22.7 | 20.7 | 15.3 | 5.47 | 15.3 | 20.3 | 16.2 | 13.7
4 | CCOC(=O)/C(C#N)=C\C=C(/Cl)c1ccc(Cl)cc1 | 46.4 | 54.7 | 32.6 | 39.9 | 32.3 | 38.9 | 39.9 | 45.8 | 22.5 | 38.1 | 19.1 | 21 | 17.6 | 14 | 15.5 | 18.7 | 20.5 | 20 | 5.74 | 19
5 | O=[N+]([O-])c1ccc(Sc2c3ccccc3nc3cc(Cl)ccc23)cc1 | > 100 | > 100 | > 100 | > 100 | > 100 | > 100 | > 100 | > 100 | > 100 | > 100 | > 100 | > 100 | > 100 | > 100 | > 100 | > 100 |  | > 100 | > 100 | > 100
6 | C[C@H]1CCCC(O)C(O)[C@@H]2C[C@H](O[Si](C)(C)C(C)(C)C)C[C@H]2[C@H](O[Si](C)(C)C(C)(C)C)C(O)C(O)C(=O)O1 (some centres not stated) | 46.7 | > 100 | > 100 |  | > 100 | 48.8 | 18.1 | > 100 | 89.7 | > 100 | 15.9 | 34.6 | 35.2 |  | 47.9 | 18.5 | 4.3 | 37.5 | 23.5 | 32
7 | COc1ccc(C(=O)c2ccc([As]=O)cc2)cc1 (configuration not stated) | 0.236 | 0.199 |  | 0.254 |  |  | 0.417 | 0.219 | 0.201 | 0.285 | 0.0932 | 0.0418 |  | 0.0902 |  |  | 0.126 | 0.0801 | 0.064 | 0.146
8 | O=C(N/N=C/c1ccccc1O)c1ccccc1 | > 100 | > 100 | 37.1 | 53 | > 100 | 7.16 | > 100 | > 100 |  | 52.1 | 6.22 | 2.45 | 3.47 | 2.67 | 6.69 | 1.87 | 3.5 | 4.1 |  | 1.1
9 | O=C(Nc1ccc(Cl)c(Cl)c1)NS(=O)(=O)c1cnccc1Oc1ccc(F)cc1 | > 100 | 15.4 | 24.4 | 10.4 |  | > 100 | > 100 | 16.7 | 8.23 | 4.8 | 4.29 | 3.38 | 4.72 | 2.8 |  | 4.16 | 3.85 | 3.75 | 2.5 | 1.65
10 | CCCCCCCCCCCCCCCC[N+]1(C)CCOCC1 |  | 8.92 | 17.2 | 5.07 | 7.69 | 3.83 | 2.46 |  | 22.5 | 6.29 |  | 2.6 | 4 | 2.09 | 2.42 | 1.61 | 0.868 |  | 5.32 | 1.8
11 | CCNC(=O)COc1ccc(Cl)cc1Cl | > 100 | > 100 | > 100 | > 100 | > 100 |  | > 100 | > 100 | > 100 | > 100 |  |  |  |  |  |  |  |  |  | 
12 | CSC1=Nc2ccccc2N=C(c2ccc(Cl)cc2)C1 | > 100 | > 100 | 84.9 | > 100 | > 100 | > 100 |  | > 100 | > 100 | > 100 |  |  |  |  |  |  |  |  |  | 
13 | Cc1c2ccccc2cc2ccc3oc([N+](=O)[O-])cc3c12 | > 100 | > 100 | > 100 |  |  | > 100 | > 100 | > 100 | > 100 | > 100 |  |  |  |  |  |  |  |  |  | 
14 | COC(=O)C1(C(=O)OC)CC(=O)c2cc3c(cc2-c2c(cc(OC)c(OC)c2OC)C1)OCO3 | > 211 | > 211 | > 211 | > 211 | > 211 | > 211 |  | > 211 | > 211 | > 211 |  |  |  |  |  |  |  |  |  | 
15 | CC(=O)N1CCC2(c3ccccc3N(C(C)=O)C2c2ccc(O)cc2)C1C(=O)O (configuration not stated) | > 100 | > 100 | > 100 | > 100 | > 100 | > 100 | > 100 | > 100 |  | > 100 |  |  |  |  |  |  |  |  |  | 
